{
  "source": "patent US20070190628A1",
  "about": "“Yeast food composition for fuel ethanol production” (priority 2006, published 2007)",
  "test_system": "active dry yeast “z”",
  "experiment": "Individual nutritive elements added to normal gravity corn mash: fermentation rate and viable cell numbers",
  "format": "cell-based, Saccharomyces cerevisiae",
  "protocol": "Normal gravity corn mash was prepared using ground #2 yellow dent corn obtained from Commercial Alcohols Inc. (275 Bloomfield Road, Chatham, Ontario, Canada N7M 5J5). […] One part by weight of ground corn was dispersed into three parts of 50° C., sterile dH2O containing 1 mM CaCl2.2H2O. To minimize the development of excessive viscosity during gelatinization, 1.25 mL of high temperature (HT-2X) α-amylase such as was supplied by Alltech Inc. in Nicholasville, Ky., USA (HT-2X α-amylase is no longer available from Alltech), was added per litre of mash as the ground corn was dispersed. It should be noted that if Ca-independent alpha amylases are used such as Termamyl® SC supplied by Novozymes North America in Franklinton, N.C., USA, then the 1 mM CaCl2.2H2O is not required. Following the addition of the ground corn and a five-minute mixing period to produce a homogenous mixture, the temperature was increased until the mash reached 94° C. where it was held at this temperature for 60 min with continued stirring. The temperature of the gelatinized starch was then reduced to 80° C. and liquefied by a second dose of HT-2X αx-amylase (1.25 mL/L) with continued stirring for 30 min. Sterile Celstir® (Wheaton Scientific, Millville, N.J.) fermentor vessels were filled with 1 L aliquots of this mash. To each fermentor vessel, filter-sterilized (25 mm, 0.2 μm Acrodisc® syringe filter, Pall Corporation, Ann Arbor, Mich.) urea (Fisher Scientific, Co., NJ), was added to achieve a final concentration of 8 mM. Cold-sterilization of the mash was assured by the addition of 100 μL of diethyl pyrocarbonate (DEPC, Sigma Chemical Co.) per litre of mash mixing the mash mechanically (IKA-Labortechnik, Staufen, Germany) for 5-10 min followed by cooling the fermentor vessels at 4° C. cold room for ˜72 hrs. The fermentor vessels were then removed from the cold room, connected to 30° C. water bath circulators and mixed. Glucoamylase in the form of Allcholase II 400 supplied by Alltech Inc. was then added (1.5 mL/L mash) 30 min prior to yeast inoculation to initiate saccharification of the dextrins formed during gelatinization and liquefaction (it should be noted that Allcholase II 400 is no longer available and any glucoamylase may be used). The mash thus prepared contained 19-20 g of dissolved solids/100 mL of mash as determined by a digital density meter analyzer (model DMA-45, Anton Paar KG, Graz, Austria) maintained at 20° C.\nEleven grams of a commercially available active dry yeast, designated as “z”, were rehydrated by dispersal in 99 mL of preheated 38° C., 0.1% (w/v) sterile water and incubation for 20 min with periodic shaking in a 38° C. water bath. Fermentor vessels containing normal density corn mash were prepared as described above and inoculated with sufficient active yeast to provide an initial viable cell count of 1×10^7 cells per mL mash. The optimal fermentation temperature for the active dry yeast “z” was determined by conducting fermentations at 30°, 34°, 36°, 38°, and 40° C.\nThe effects of individual elements on yeast cell biomass production and fermentation in a fermentation feedstock were assessed by separately supplementing of corn mash with nitrogen, phosphorus, magnesium, sulphur and zinc. Nitrogen effects were assessed in corn mashes by the additions of urea to provide final concentrations in the mash of […]. Phosphorus effects were assessed in corn mashes amended with 16 mM urea, by the additions of (NH4)2HPO4 (BDH Chemicals Inc, Toronto, Ont., MW: 132.06) to provide final concentrations of 0, 0.1, 0.2, 0.4, 0.6, and 0.8 g of (NH4)2HPO4/L of mash. Magnesium effects were assessed in corn mashes amended with 16 mM urea, by the additions of MgSO4.7H2O (BDH Chemicals Inc., MW. 246.48) to provide final concentrations of 0, 0.025, 0.049, 0.074, 0.099, 0.148, 0.197 g of MgSO4.7H2O/L of mash. […]",
  "data": [
    {"compound": "NC(N)=O", "note": "[urea]", "values": [
      {"measurement": "highest yeast cell counts", "setting": "corn mash with 8 mM and 16 mM urea", "result": "3.3×10^8 CFU/mL"},
      {"measurement": "increase of cell numbers", "setting": "corn mash with 8 mM and 16 mM urea, versus no urea", "result": 50, "unit": "%"},
      {"measurement": "increase of the rate of dissolved solids utilization", "setting": "urea 16-32 mM in corn mash, 30° C.", "result": "approximately 2 fold"},
      {"measurement": "urea supplementation rate at which the maximum fermentation rate was observed", "setting": "urea tested up to 32 mM", "result": 16, "unit": "mM"}
    ]}
  ]
}
